{"source": "ChEMBL document CHEMBL5523723", "about": "“G Protein-Coupled Estrogen Receptor-Mediated Anti-Inflammatory and Mucosal Healing Activity of a Trimethylpyridinol Analogue in Inflammatory Bowel Disease” (J Med Chem, 2024)", "key": {"CYP2D6": {"molecular_target": "CYP2D6 (Homo sapiens, UniProt P10635)", "sequence (P10635 whole entry)": "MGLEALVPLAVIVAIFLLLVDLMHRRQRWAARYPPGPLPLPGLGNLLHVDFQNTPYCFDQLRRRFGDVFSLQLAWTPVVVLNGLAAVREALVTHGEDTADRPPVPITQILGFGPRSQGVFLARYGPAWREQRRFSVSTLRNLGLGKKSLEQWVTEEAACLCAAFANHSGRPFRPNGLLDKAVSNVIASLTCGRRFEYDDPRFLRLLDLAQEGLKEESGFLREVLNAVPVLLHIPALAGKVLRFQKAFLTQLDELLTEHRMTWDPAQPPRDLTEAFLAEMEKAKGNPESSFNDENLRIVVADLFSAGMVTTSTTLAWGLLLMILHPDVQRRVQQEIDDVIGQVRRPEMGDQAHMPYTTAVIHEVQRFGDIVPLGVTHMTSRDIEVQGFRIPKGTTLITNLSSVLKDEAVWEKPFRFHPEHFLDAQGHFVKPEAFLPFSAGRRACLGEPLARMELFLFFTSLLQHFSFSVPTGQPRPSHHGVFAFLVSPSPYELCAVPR", "assay": "Inhibition of CYP2D6 in human liver microsomes assessed as remaining activity at 10 uM using dextromethorphan as substrate preincubated for 5 mins followed by NADPH generating system addition for 15 mins by LC-MS/MS method relative to control", "type": "ADME, Microsome", "details": "probe dextromethorphan, time 20 min, read-out: Activity"}, "CYP3A4": {"molecular_target": "CYP3A4 (Homo sapiens, UniProt P08684)", "sequence (P08684 whole entry)": "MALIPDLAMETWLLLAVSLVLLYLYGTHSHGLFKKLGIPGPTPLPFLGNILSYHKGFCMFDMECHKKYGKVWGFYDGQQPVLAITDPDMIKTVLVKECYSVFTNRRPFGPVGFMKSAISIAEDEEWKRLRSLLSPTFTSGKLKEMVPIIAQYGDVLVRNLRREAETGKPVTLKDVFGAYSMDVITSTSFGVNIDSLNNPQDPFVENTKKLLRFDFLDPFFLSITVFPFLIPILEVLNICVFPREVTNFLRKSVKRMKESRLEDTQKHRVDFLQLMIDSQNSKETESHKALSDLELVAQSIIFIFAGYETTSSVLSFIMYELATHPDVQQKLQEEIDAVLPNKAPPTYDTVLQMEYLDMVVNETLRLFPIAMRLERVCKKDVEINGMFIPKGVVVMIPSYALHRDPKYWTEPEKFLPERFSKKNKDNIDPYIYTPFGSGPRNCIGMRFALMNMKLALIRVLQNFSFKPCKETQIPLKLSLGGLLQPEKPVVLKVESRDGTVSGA", "assay": "Inhibition of CYP3A4 in human liver microsomes assessed as remaining activity at 10 uM using midazolam as substrate preincubated for 5 mins followed by NADPH generating system addition for 15 mins by LC-MS/MS method relative to control", "type": "ADME, Microsome", "details": "probe midazolam, time 20 min, read-out: Activity"}, "[1]": {"assay": "Acute toxicity in ICR mouse assessed as change in water intake at 30 to 300 mg/kg, po measured every other day for 14 days", "type": "organism-based", "details": "in vivo, 336 h, dose 30-300 mg/kg, time 14 day"}, "[2]": {"assay": "Acute toxicity in ICR mouse assessed as digestive disorder at 30 to 300 mg/kg, po measured every other day for 14 days", "type": "organism-based", "details": "in vivo, 336 h, dose 30-300 mg/kg, time 14 day"}, "[3]": {"assay": "Acute toxicity in ICR mouse assessed as change in histology of heart at 30 to 300 mg/kg, po measured every other day for 14 days by H and E staining based assay", "type": "organism-based", "details": "in vivo, 336 h, dose 30-300 mg/kg, time 14 day"}, "[4]": {"assay": "Acute toxicity in ICR mouse assessed as change in histology of kidney at 30 to 300 mg/kg, po measured every other day for 14 days by H and E staining based assay", "type": "organism-based", "details": "in vivo, 336 h, dose 30-300 mg/kg, time 14 day"}, "[5]": {"assay": "AUC(0 to t) in Sprague-Dawley rat at 1 mg/kg, po by LC-MS analysis", "type": "ADME, organism-based", "details": "in vivo"}, "[6]": {"assay": "Oral bioavailability in Sprague-Dawley rat at 1 mg/kg by LC-MS analysis", "type": "ADME, organism-based", "details": "in vivo"}, "[7]": {"assay": "Cmax in Sprague-Dawley rat at 5 mg/kg, po by LC-MS analysis", "type": "ADME, organism-based", "details": "in vivo"}, "[8]": {"assay": "Half life in Sprague-Dawley rat at 5 mg/kg, po by LC-MS analysis", "type": "ADME, organism-based", "details": "in vivo"}, "[9]": {"molecular_target": "Prostaglandin G/H synthase 1 (Homo sapiens, UniProt P23219)", "sequence (P23219 whole entry)": "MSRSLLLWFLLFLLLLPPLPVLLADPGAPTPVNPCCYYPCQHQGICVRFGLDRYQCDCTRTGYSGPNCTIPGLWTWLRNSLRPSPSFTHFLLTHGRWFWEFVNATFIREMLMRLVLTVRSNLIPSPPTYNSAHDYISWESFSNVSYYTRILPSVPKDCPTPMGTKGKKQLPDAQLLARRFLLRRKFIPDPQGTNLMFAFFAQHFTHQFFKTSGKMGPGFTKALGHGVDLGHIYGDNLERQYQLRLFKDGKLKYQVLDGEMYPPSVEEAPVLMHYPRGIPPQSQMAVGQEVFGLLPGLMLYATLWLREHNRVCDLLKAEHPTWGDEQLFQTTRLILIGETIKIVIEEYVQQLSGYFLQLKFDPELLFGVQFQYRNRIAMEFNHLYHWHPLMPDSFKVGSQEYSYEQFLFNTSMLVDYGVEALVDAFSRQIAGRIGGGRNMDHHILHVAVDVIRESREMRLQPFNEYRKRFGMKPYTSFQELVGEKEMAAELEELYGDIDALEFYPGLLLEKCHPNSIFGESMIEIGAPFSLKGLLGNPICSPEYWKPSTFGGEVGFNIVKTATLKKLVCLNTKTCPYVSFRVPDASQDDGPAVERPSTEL", "assay": "Inhibition of COX-1 (unknown origin)"}, "[10]": {"molecular_target": "G-protein coupled estrogen receptor 1 (Homo sapiens, UniProt Q99527)", "sequence (Q99527 whole entry)": "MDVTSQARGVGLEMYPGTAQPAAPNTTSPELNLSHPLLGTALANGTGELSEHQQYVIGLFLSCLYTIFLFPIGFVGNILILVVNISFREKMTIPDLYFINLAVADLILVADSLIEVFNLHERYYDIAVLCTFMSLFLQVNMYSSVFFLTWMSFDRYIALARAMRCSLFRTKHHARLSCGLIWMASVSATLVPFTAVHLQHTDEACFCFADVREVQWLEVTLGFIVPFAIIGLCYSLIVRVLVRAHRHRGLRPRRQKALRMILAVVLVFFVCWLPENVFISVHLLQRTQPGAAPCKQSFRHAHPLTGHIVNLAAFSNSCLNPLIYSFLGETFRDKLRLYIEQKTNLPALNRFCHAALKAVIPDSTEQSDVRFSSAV", "assay": "Binding affinity to human GPER by SPR method"}, "HT-29": {"tested_on": "HT-29", "assay": "Induction of apoptosis in human HT-29 cells assessed as viable cells at 5 uM incubated for 24 hrs by Annexin V FITC/PI staining based flow cytometry analysis ( Rvb = 99 +/- 0.1%)", "type": "functional", "details": "read-out: Activity"}, "U-937 [11]": {"tested_on": "U-937", "assay": "Induction of apoptosis in human U-937 cells assessed as viable cells at 5 uM incubated for 24 hrs by Annexin V FITC/PI staining based flow cytometry analysis ( Rvb = 95.2 +/- 0.4%)", "type": "functional", "details": "read-out: Activity"}, "U-937 [12]": {"tested_on": "U-937", "assay": "Induction of apoptosis in human U-937 cells assessed as viable cells at 10 uM incubated for 24 hrs by Annexin V FITC/PI staining based flow cytometry analysis ( Rvb = 95.2 +/- 0.4%)", "type": "functional", "details": "read-out: Activity"}}, "data": [{"smiles": "Cc1nc(NC(=O)c2sc3cc(F)ccc3c2Cl)c(C)c(C)c1O", "values": [{"measurement": "activity at 0.25 h, 10 µM", "setting": "CYP2D6", "value": 86, "unit": "%"}, {"measurement": "activity at 0.25 h, 10 µM", "setting": "CYP3A4", "value": 89.9, "unit": "%"}, {"measurement": "Activity", "setting": "[1]", "value": "Non-Toxic"}, {"measurement": "Activity", "setting": "[2]", "value": "Non-Toxic"}, {"measurement": "Activity", "setting": "[3]", "value": "Non-Toxic"}, {"measurement": "Activity", "setting": "[4]", "value": "Non-Toxic"}, {"measurement": "AUCt", "setting": "[5]", "value": 246.3, "unit": "ng·h/mL"}, {"measurement": "F", "setting": "[6]", "value": 24.5, "unit": "%"}, {"measurement": "Cmax", "setting": "[7]", "value": 760, "unit": "ng/mL"}, {"measurement": "half-life", "setting": "[8]", "value": 198, "unit": "min"}, {"measurement": "IC50", "setting": "[9]", "value": 800, "unit": "nM"}, {"measurement": "Kd", "setting": "[10]", "value": 23.7, "unit": "nM"}, {"measurement": "viability at 5 µM", "setting": "HT-29", "value": 98.7, "unit": "%"}, {"measurement": "viability at 5 µM", "setting": "U-937 [11]", "value": 95.2, "unit": "%"}, {"measurement": "viability at 10 µM", "setting": "U-937 [12]", "value": 95.2, "unit": "%"}]}]}
